In ChEMBL document CHEMBL1955849, “Design and synthesis of thiourea compounds that inhibit transmembrane anchored carbonic anhydrases” (Bioorg Med Chem, 2012) one finds Ki and solubility data, which are given here for 21 compounds.

Each structure is given as a SMILES string. pKi: −log10 of the molar value.

Series [1] has as its target Carbonic anhydrase 9 (Homo sapiens, UniProt Q16790).
Series [2] can be described thus: Solubility of the compound in water. It counts as physicochemical.
The target in series [3] is Carbonic anhydrase 1 (Homo sapiens, UniProt P00915).
Carbonic anhydrase 1, sequence (P00915 whole entry): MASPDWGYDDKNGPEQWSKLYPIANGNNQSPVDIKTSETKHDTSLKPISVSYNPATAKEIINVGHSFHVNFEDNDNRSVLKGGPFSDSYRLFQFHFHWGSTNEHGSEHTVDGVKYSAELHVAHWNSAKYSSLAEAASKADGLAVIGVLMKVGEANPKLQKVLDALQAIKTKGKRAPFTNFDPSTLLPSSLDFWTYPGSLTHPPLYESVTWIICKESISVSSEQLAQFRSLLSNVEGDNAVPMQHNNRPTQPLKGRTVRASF
For series [4], the target named is Carbonic anhydrase 2 (Homo sapiens, UniProt P00918).
Series [5] addresses Carbonic anhydrase 12 (Homo sapiens, UniProt O43570).
In series [6] the target is Carbonic anhydrase 14 (Homo sapiens, UniProt Q9ULX7).
Carbonic anhydrase 14, sequence (Q9ULX7 whole entry): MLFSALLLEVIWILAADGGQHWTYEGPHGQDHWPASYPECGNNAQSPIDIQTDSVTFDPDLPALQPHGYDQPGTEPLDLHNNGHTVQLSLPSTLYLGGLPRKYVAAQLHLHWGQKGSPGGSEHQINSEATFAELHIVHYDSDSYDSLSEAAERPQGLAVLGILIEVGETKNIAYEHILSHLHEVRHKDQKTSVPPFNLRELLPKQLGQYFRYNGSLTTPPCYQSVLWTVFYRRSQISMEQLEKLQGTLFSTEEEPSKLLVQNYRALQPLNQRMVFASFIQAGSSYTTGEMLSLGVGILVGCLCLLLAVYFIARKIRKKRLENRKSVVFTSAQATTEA

Carbonic anhydrase 12, sequence (O43570 whole entry): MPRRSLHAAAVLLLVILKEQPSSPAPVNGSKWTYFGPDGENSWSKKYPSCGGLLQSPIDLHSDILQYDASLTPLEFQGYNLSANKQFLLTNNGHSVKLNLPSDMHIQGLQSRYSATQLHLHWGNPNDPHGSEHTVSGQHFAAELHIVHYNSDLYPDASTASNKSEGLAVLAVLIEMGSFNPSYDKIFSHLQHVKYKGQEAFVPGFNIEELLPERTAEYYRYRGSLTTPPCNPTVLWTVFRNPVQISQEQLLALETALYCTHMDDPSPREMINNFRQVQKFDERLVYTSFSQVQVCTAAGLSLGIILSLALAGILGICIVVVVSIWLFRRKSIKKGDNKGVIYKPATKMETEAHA

One may read the pKi as −log10 of the Ki, conventionally taken in molar units. By solubility is commonly meant the concentration that dissolves in the medium under given conditions. Low readings indicate little dissolved substance, high ones much dissolved substance. Take `NS(=O)(=O)c1ccc(CCNC(=S)N[C@@H]2O[C@H](CO)[C@H](O)[C@H](O)[C@H]2O)cc1`: the negative logarithm of the Ki (pKi) in series [1] is 8.55; in series [3], 5.24; in series [4], 8.03; in series [5], 7.99; in series [6], 6.97. Further, in series [2], the solubility was above 20 mg/mL.
As for `CC(=O)OC[C@H]1O[C@@H](NC(=S)NCCc2ccc(S(N)(=O)=O)cc2)[C@H](OC(C)=O)[C@@H](OC(C)=O)[C@@H]1O[C@H]1O[C@H](COC(C)=O)[C@@H](OC(C)=O)[C@H](OC(C)=O)[C@H]1OC(C)=O`, the negative-log Ki (pKi) in series [1] is 6.91; in series [3], 5.43; in series [4], 8.01; in series [5], 8.08; in series [6], 8.06.
As to `NS(=O)(=O)c1ccc(CNC(=S)N[C@@H]2O[C@H](CO)[C@@H](O[C@H]3O[C@H](CO)[C@@H](O)[C@H](O)[C@H]3O)[C@H](O)[C@H]2O)cc1`, the pKi was 8.08 in series [1]; 5.20 in series [3]; 6.42 in series [4]; 7.90 in series [5]; 8.07 in series [6]. The compound further showed a solubility in series [2] above 20 mg/mL.
Consider `CC(=O)OC[C@H]1O[C@@H](NC(=S)NNC(=O)c2ccc(S(N)(=O)=O)cc2)[C@H](OC(C)=O)[C@@H](OC(C)=O)[C@H]1OC(C)=O`, for which the pKi was 8.48 in series [1]; 5.19 in series [3]; 8.07 in series [4]; 8.11 in series [5]; 7.97 in series [6].
`NS(=O)(=O)c1ccc(C(=O)NNC(=S)N[C@@H]2O[C@H](CO)[C@@H](O[C@@H]3O[C@H](CO)[C@H](O)[C@H](O)[C@H]3O)[C@H](O)[C@H]2O)cc1` came in with a solubility in series [2] above 20 mg/mL. The values for the pKi in series [4], in series [5] and in series [6] were 8.13, 8.06 and 8.07, respectively.
`NS(=O)(=O)c1ccc(NC(=S)N[C@@H]2O[C@H](CO)[C@@H](O[C@@H]3O[C@H](CO)[C@H](O)[C@H](O)[C@H]3O)[C@H](O)[C@H]2O)cc1`: the pKi in series [1] is 6.59; in series [3], 5.10; in series [4], 8.16; in series [5] it was 7.09; in series [6] it was 7.26. Also, the solubility in series [2] was above 20 mg/mL.
For the compound `NS(=O)(=O)c1ccc(CCNC(=S)N[C@@H]2O[C@H](CO)[C@@H](O[C@H]3O[C@H](CO)[C@@H](O)[C@H](O)[C@H]3O)[C@H](O)[C@H]2O)cc1`, the pKi in series [1] is 8.68; in series [3], 5.37; in series [4] it was 6.57; in series [5], 8.01; in series [6], 8.11. In series [2], this compound registered a solubility above 20 mg/mL.
In series [2], `NS(=O)(=O)c1ccc(C(=O)NNC(=S)N[C@@H]2O[C@H](CO)[C@@H](O[C@H]3O[C@H](CO)[C@@H](O)[C@H](O)[C@H]3O)[C@H](O)[C@H]2O)cc1` yielded a solubility above 20 mg/mL. Also, the pKi was 6.96 in series [4], 8.09 in series [5] and 8.07 in series [6].
As to `NS(=O)(=O)c1ccc(NC(=S)N[C@@H]2O[C@H](CO)[C@@H](O[C@H]3O[C@H](CO)[C@@H](O)[C@H](O)[C@H]3O)[C@H](O)[C@H]2O)cc1`, the negative-log Ki (pKi) in series [1] is 8.08; in series [3] it was 5.10; in series [4], 8.12; in series [5], 6.52; in series [6] it was 8.01. The compound further showed a solubility in series [2] above 20 mg/mL.
As to `NS(=O)(=O)c1ccc(CCNC(=S)N[C@@H]2O[C@H](CO)[C@@H](O)[C@H](O)[C@H]2O)cc1`, the negative-log Ki (pKi) was 8.06 in series [1]; 8.05 in series [3]; 6.97 in series [4]; 8.01 in series [5]; 8.10 in series [6]. This compound also registered a solubility in series [2] above 20 mg/mL.
As to `NS(=O)(=O)c1ccc(CNC(=S)N[C@@H]2O[C@H](CO)[C@H](O)[C@H](O)[C@H]2O)cc1`, the pKi was 8.16 in series [1]; 5.19 in series [3]; 7.22 in series [4]; 6.95 in series [5]; 6.89 in series [6]. The compound further yielded a solubility in series [2] above 20 mg/mL.
Consider `NS(=O)(=O)c1ccc(CNC(=S)N[C@@H]2O[C@H](CO)[C@@H](O[C@@H]3O[C@H](CO)[C@H](O)[C@H](O)[C@H]3O)[C@H](O)[C@H]2O)cc1`, for which the pKi in series [1] was 8.08; in series [3] it was 5.39; in series [4], 6.98; in series [5], 8.10; in series [6], 7.36. The compound also showed a solubility in series [2] above 20 mg/mL.
As to `CC(=O)OC[C@H]1O[C@@H](NC(=S)NCCc2ccc(S(N)(=O)=O)cc2)[C@H](OC(C)=O)[C@@H](OC(C)=O)[C@H]1OC(C)=O`, the pKi in series [1] is 6.36; in series [3], 7.00; in series [4], 6.53; in series [5], 8.06; in series [6] it was 8.06.
As for `NS(=O)(=O)c1ccc(CNC(=S)N[C@@H]2O[C@H](CO)[C@@H](O)[C@H](O)[C@H]2O)cc1`, the solubility in series [2] is above 20 mg/mL. Also, the negative logarithm of the Ki (pKi) is 5.12 in series [3], 6.42 in series [4], 8.09 in series [5] and 7.80 in series [6].
On to `CC(=O)OC[C@H]1O[C@@H](NC(=S)NCCc2ccc(S(N)(=O)=O)cc2)[C@H](OC(C)=O)[C@@H](OC(C)=O)[C@@H]1OC(C)=O`, for which the pKi in series [1] was 6.35; in series [3] it was 5.26; in series [4], 8.14; in series [5] it was 8.05; in series [6], 8.06.
The compound `NS(=O)(=O)c1ccc(C(=O)NNC(=S)N[C@@H]2O[C@H](CO)[C@H](O)[C@H](O)[C@H]2O)cc1` gave a solubility in series [2] above 20 mg/mL. The negative-log Ki (pKi) in series [3] was 5.39; in series [4], 6.46; in series [5], 8.07; in series [6], 8.09.
As to `NS(=O)(=O)c1ccc(C(=O)NNC(=S)N[C@@H]2O[C@H](CO)[C@@H](O)[C@H](O)[C@H]2O)cc1`, the solubility in series [2] is above 20 mg/mL. Moreover, the pKi is 5.10 in series [3], 6.28 in series [4], 8.07 in series [5] and 8.10 in series [6].
Take `NS(=O)(=O)c1ccc(CCNC(=S)N[C@@H]2O[C@H](CO)[C@@H](O[C@@H]3O[C@H](CO)[C@H](O)[C@H](O)[C@H]3O)[C@H](O)[C@H]2O)cc1`: the pKi is 8.05 in series [1]; 7.00 in series [3]; 8.05 in series [4]; 7.87 in series [5]; 8.08 in series [6]. This compound returned a solubility in series [2] above 20 mg/mL.
The compound `NS(=O)(=O)c1ccc(NC(=S)N[C@@H]2O[C@H](CO)[C@H](O)[C@H](O)[C@H]2O)cc1` registered a solubility in series [2] above 20 mg/mL. Also, the pKi was 5.16 in series [3], 6.65 in series [4], 7.70 in series [5] and 6.90 in series [6].
On to `CC(=O)OC[C@H]1O[C@@H](NC(=S)NNC(=O)c2ccc(S(N)(=O)=O)cc2)[C@H](OC(C)=O)[C@@H](OC(C)=O)[C@@H]1OC(C)=O`, for which the pKi in series [1] is 8.06; in series [3] it was 5.42; in series [4], 8.00; in series [5], 8.14; in series [6], 7.99.
As to `NS(=O)(=O)c1ccc(NC(=S)N[C@@H]2O[C@H](CO)[C@@H](O)[C@H](O)[C@H]2O)cc1`, the pKi in series [1] was 6.55; in series [3], 5.11; in series [4] it was 8.15; in series [5], 8.09; in series [6], 7.39. The same compound displayed a solubility in series [2] above 20 mg/mL.
